The text below walks through data of PubChem BioAssay (NCI).

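The compound was tested at five concentrations on cells cultured in 96-well plates, with a 48-hour exposure period. Here, GI50 denotes the concentration required for 50% inhibition of growth. At the TGI there is no net growth.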 Bounds are passed on as bounds.

Common to all, as to assay: growth of human tumour cells (NCI), 48 h
For assay [1], the system named is HOP-62 NSCLC.
For assay [2], the system named is IGROV1 ovarian.
The subject of assay [3] is ACHN renal.
For assay [4], the system named is OVCAR-8 ovarian.
For assay [5], the system named is T-47D breast.
Assay [6] deals with MCF7 breast.
The subject of assay [7] is SNB-75 CNS.
In assay [8] the test system is NCI-H23 lung.
Assay [9] deals with SK-MEL-2 melanoma.
In assay [10] the test system is UACC-62 melanoma.

As to `CC1=C(/C=C/C(C)=C\C=C\C(C)=C\C(=O)Nc2ccc3c(c2)OCO3)C(C)(C)CCC1`, the GI50 in assay [1] was above 100 µM; in assay [2], above 100 µM; in assay [3] it was 89.1 µM; in [4], 93.1 µM; in [5] it was 25.4 µM; in [6], 11.2 µM. Moreover, the GI50 in assay [7] was 7.41 µM; in assay [8], 17.7 µM; in assay [9], 61.6 µM; in assay [10] it was above 100 µM. In addition, the TGI in [1], in [2], in [3], in assay [4], in assay [5] and in [6] was above 100 µM in each case. The TGI in [7], in assay [8], in assay [9] and in [10] was above 100 µM each time.

As for `CC(C)(C)N1CCC1C(N)=O` (stereo not drawn), the GI50 in assay [1], in assay [2], in assay [3], in assay [4], in assay [5] and in assay [6] was above 100 µM in each case. For the same compound, the GI50 in assay [7], in assay [8], in [9] and in [10] was above 100 µM each time. In addition, the TGI in assay [1], in [2], in assay [3], in assay [4], in [5] and in [6] was above 100 µM throughout. The TGI in assay [7], in assay [8], in assay [9] and in assay [10] was above 100 µM in each case.

In the case of `CCCCn1c2cc(OCc3cn(-c4ccc(Cl)cc4)nn3)ccc2c2ccnc(C)c21`, the GI50 in assay [2] was 9.02 µM; in [3] it was 5.06 µM; in assay [4] it was 6.42 µM; in assay [5], 4.3 µM; in [6], 7.14 µM; in assay [7] it was 5.09 µM. Further, the GI50 is 7.23 µM in [8], 7.82 µM in assay [9] and 4.96 µM in [10]. Moreover, the TGI in [2] was above 33.3 µM; in assay [3], 10.3 µM; in assay [4] it was 23.9 µM; in [5], 15 µM; in assay [6], above 33.3 µM; in assay [7], 13.1 µM. The figures for the TGI in assay [8], in assay [9] and in [10] were 26.6 µM, 22.5 µM and 11.8 µM, respectively.

For the compound `C[C@]12CCC3[C@@H](C[C@@H]4SC(Nc5ccccc5)=N[C@@]45CC(=O)CC[C@]35C)[C@@H]1CCC2=O` (stereo partly drawn), the GI50 in assay [1] was 22.4 µM; in assay [2], 8.21 µM; in [3], 7.81 µM; in assay [4] it was 7.61 µM; in assay [5] it was 3.5 µM; in assay [6] it was 3.58 µM. Further, the GI50 is 5.4 µM in assay [7], 18.1 µM in assay [8], 17.1 µM in assay [9] and 9.54 µM in [10]. Also, the TGI was above 100 µM in [1]; above 100 µM in assay [2]; 29.5 µM in assay [3]; above 100 µM in assay [4]; above 100 µM in assay [5]; 32.8 µM in assay [6]. Also, the TGI is 72.5 µM in assay [7], above 100 µM in assay [8], 60.8 µM in assay [9] and 29.6 µM in assay [10].

Regarding `Cc1ccc2c(c1)nc(C(=O)c1ccco1)c(C(F)(F)F)[n+]2[O-]`, the GI50 in assay [1] is above 100 µM; in [2], 48 µM; in assay [3], above 100 µM; in assay [4] it was above 100 µM; in [5] it was 50.3 µM; in assay [6], above 100 µM. Besides, the GI50 in assay [7] is 76.7 µM; in assay [8], 91.8 µM; in assay [9], above 100 µM; in [10], 89.1 µM. The TGI in [1], in assay [2], in assay [3], in [4], in assay [5] and in assay [6] was above 100 µM in each case. Also, the TGI in assay [7], in assay [8], in [9] and in assay [10] was above 100 µM throughout.

Consider `Cc1ccc(C(CN(C)C)C(=O)c2ccccc2)cc1` (stereo not drawn), for which the GI50 was 12.2 µM in assay [1]; 3.62 µM in [2]; 1.63 µM in assay [3]; 3.13 µM in assay [4]; 2.35 µM in [5]; 2.58 µM in assay [7]. The GI50 in assay [8] is 10.5 µM; in assay [9], 4.45 µM; in [10] it was 1.85 µM. In addition, the TGI in assay [1] amounted to 27.5 µM; in assay [2], 11.5 µM; in assay [3] it was 3.18 µM; in [4] it was 11.3 µM; in [5] it was 12.7 µM; in assay [7], 14.8 µM. The TGI was 26.7 µM in assay [8], 15.8 µM in assay [9] and 4.33 µM in [10].

For `CCOP(=O)(OCC)C(NC(c1ccccc1)c1ccccc1)c1ccccc1` (stereo not drawn), the GI50 in assay [1] was 16.6 µM; in assay [3], 13.2 µM; in [4] it was 16.3 µM; in [5], 42.6 µM; in [6] it was 15.9 µM; in [7] it was 21.7 µM. Further, the GI50 is 14.4 µM in [8], 22.3 µM in assay [9] and 12.1 µM in [10]. The TGI worked out at 30.3 µM in assay [1]; 26.3 µM in assay [3]; 33.6 µM in [4]; 99 µM in assay [5]; 31.9 µM in assay [6]; 45.3 µM in assay [7]. Moreover, the values for the TGI in assay [8], in assay [9] and in assay [10] were 28.7 µM, 52.2 µM and 25.9 µM, respectively.

As for `O=c1cc(C(F)(F)F)c2cc3c(cc2o1)NCCC3`, the TGI in assay [1] was 42.8 µM; in assay [2] it was above 100 µM; in assay [3] it was above 100 µM; in [4], above 100 µM; in assay [5] it was above 100 µM; in [6], above 100 µM. For the same compound, the TGI in assay [8] and in assay [9] was above 100 µM throughout.

Take `Cc1cn(C2CC(F)C(CO)O2)c(=O)[nH]c1=O` (stereo not drawn): the GI50 in [1], in assay [2], in [3], in [4], in assay [5] and in assay [6] was above 100 µM each time. Also, the GI50 in [8], in assay [9] and in [10] was above 100 µM throughout. Also, the TGI in [1], in assay [2], in assay [3], in assay [4], in assay [5] and in assay [6] was above 100 µM in each case. Further, the TGI in assay [8], in assay [9] and in assay [10] was above 100 µM throughout.

`CCN(CC)c1ccc(/C=C\c2cc(C)c3cc(C)ccc3n2)cc1`: the GI50 in [2] is 7.34 µM; in [3], 6.23 µM; in assay [4], 4.79 µM; in [5], 1.11 µM; in [6] it was 2.95 µM; in assay [7] it was 4.83 µM. In addition, the figures for the GI50 in assay [8], in assay [9] and in [10] were 5.37 µM, 7.24 µM and 3.92 µM, respectively. Besides, the TGI in [2], in [3], in [4], in [5], in assay [6] and in assay [7] was above 100 µM in each case. The TGI in [8] was above 100 µM; in assay [9], 81 µM; in [10], above 100 µM.

`C1CC[N-]CC1.C1CC[N-]CC1.C1CC[N-]CC1.C1CC[N-]CC1.[Cl][Rh][Cl]`: the GI50 in assay [1] was 4.41 µM; in assay [2], 7.85 µM; in [3], 50.1 µM; in assay [4], 4.07 µM; in assay [5], 3.87 µM; in assay [6] it was 10.2 µM. Also, the GI50 was 6.69 µM in assay [7] and 12.7 µM in [9]. Besides, the TGI in assay [1] was above 100 µM; in assay [2], 76.8 µM; in assay [3], above 100 µM; in assay [4], above 100 µM; in [5], above 100 µM; in assay [6], above 100 µM. In addition, the TGI in [7] amounted to 80.3 µM; in assay [9], 41.8 µM.

As to `CC(=O)O[C@H]1C(=O)[C@@]2(C)C(C(OC(=O)c3ccccc3)[C@]3(O)CC(OC(=O)[C@H](OC(=O)CCC(=O)O)C(NC(=O)c4ccccc4)c4ccccc4)C(C)=C1C3(C)C)C1(OC(C)=O)COC1C[C@@H]2OC(=O)CCC(=O)O` (stereo partly drawn), the TGI in [2] is above 100 µM; in [3] it was above 100 µM; in [4], above 100 µM; in [5] it was above 100 µM; in assay [6] it was above 100 µM; in assay [7], above 26.8 µM. In addition, the values for the TGI in [8] and in assay [10] were above 100 µM and 29.3 µM, respectively. The GI50 in assay [10] is 2.05 µM.
